This is an account of results in patent US20220047702A1, “TARGETED MAGNETIC VEHICLES AND METHOD OF USING THE SAME” (HADASIT MEDICAL RESEARCH SERVICES AND DEVELOPMENT LTD., priority 2019, published 2022).

Data set [1] deals with CT26 tumors. Put plainly: Anti-tumor activity of systemically administered 5FU in tumor-xenografted mice. In kind it is in vivo. Conditions: three consecutive intraperitoneal injections, vs normal saline. Here is the method:
Male BALB/c mice (6 weeks of age, Envigo, Israel) were used for all in-vivo experiments. All experiments were performed with approval and in accordance with the guidelines of the Institutional Animal Care and Use Committee at The Hebrew University of Jerusalem. 1.5×10^6 CT26 cells were injected subcutaneously into the right anterior limb of each mouse. Ten days later (day 0) colorectal tumor appeared at the injection site. The mice were randomly allocated to control and experimental groups.
Following tumor creation systemic administration via intraperitoneal (IP) injection of 5FU (experiment) or normal saline (control) was performed. 5FU injections were carried out on days 3, 4, 5. Tumor progression was evaluated by measuring the tumor volume using a Vernier caliper at days 0,1,3,4,6,8 and 10.
Statistical analyses of tumor volumes were performed using RM two-way Analysis of Variation (ANOVA) with a confidence interval of 95% using post hoc Dunnet' s analysis of multiple comparisons for the tumor treated with 5FU bounded to 6×IONPs and Sidak's analysis for the tumor treated with free 5FU. Statistical analysis of iron staining quantification in the spleen was performed using the nonparametric Kruskal-Wallis test with a confidence interval of 95% using post hoc Dunn's analysis of multiple comparisons.

Data set [2] in a line: Bound avastin concentration on IO/HSA NPs (ELISA). It is filed as physicochemical. To be noted: via ELISA method. On the procedure:
200 μl of NHS-PEG-MA [MA=melimide] (MW=3000 g/mol) were added to sterile IO/HSA nanoparticles dispersion in PBS (5 ml, 10 mg/mL). The reaction mixture was shaken at room temperature for 30 min. The derivatized PEGMA-conjugated IO/HSA NPs PBS dispersion was washed and eluted with bicarbonate buffer in a magnetic column, followed by immediate addition under sterile conditions of 40 μl of AV aqueous solution (25 mg/ml). The reaction mixture was shaken at 4° C. for 1.5 h. then, 10 weight % glycine solution (10 mg) were added to the AV-conjugated IO/HSA NPs bicarbonate aqueous dispersion to block residual sites. The AV-IO/HSA nanoparticles were then washed and eluted through a magnetic column with PBS and stored under sterile conditions.
Avastin was physically conjugated to the IO/HSA nanoparticles by adding 7.5 mg of avastin to 4 mL of the IO/HSA NPs PBS dispersion (10 mg/mL). […]
The attached and remaining concentrations of physically and covalently conjugated avastin was determined through ELISA assay using a standard protocol. The calculated covalent bound avastin concentration (via ELISA method) was 0.10 mg/1 mg of the nanoparticles. The calculated physical conjugated avastin concentration (via ELISA method) was 0.13 mg/1 mg of the nanoparticles (30% more of the covalent binding process).

In data set [3] the test system is CT26 tumor (Bev resistant). Put plainly: Anti-tumor activity of Bev SPIONs in Bev resistant tumors. In kind it is in vivo, mice. Conditions: 10 mg/kg (FIG. 13), without magnetic field.

Entries after “also recorded” stand apart in the source; their conditions may differ.

On to `O=c1[nH]cc(F)c(=O)[nH]1` [5FU, 5-Fluorouracil], for which, in data set [1], the “tumor volume / tumor growth” value is given as “No significant changes in tumor volumes; also recorded: did not inhibit CT26 tumor growth at all; also recorded: no significant difference”. For “AV-IO/HSA: Avastin covalently bound via NHS-PEG-MA to IO/HSA nanoparticles”, in data set [2], the “calculated bound avastin concentration” value is listed as 0.10 mg/1 mg of the nanoparticles. On to bevacizumab, for which the tumor growth result in data set [3] (local administration) and in data set [3] (systemic administration) was “did not yield inhibition of tumor growth; also recorded: had no effect on tumor growth” each time.
